Measurements published in patent US10030047B2 (Hoffmann-La Roche Inc., priority 2015, dated 2018).
In brackets after ≈: the same amount, converted by molar mass.

Tested on: A. baumannii strain ATCC19606
Test: Minimum inhibitory concentration (MIC) determination, microbroth dilution (CLSI)
Format: cell-based
Settings: Acinetobacter baumannii; A. baumannii ATCC19606; CAMHB; read after 20 hours; >=80% growth inhibition; read-out: ATCC19606 MIC
Summary of the method: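 CLSI broth microdilution in cation-adjusted Mueller Hinton broth with twofold compound dilutions and ~5×10^5 CFU/ml inoculum, incubated at 35±2 °C. MIC read after 20 h as lowest concentration inhibiting ≥80% of growth, by eye and OD 600 nm.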

SMILES	MIC [µg/mL]
CN1C(=O)[C@H](CCCCN)NC(=O)[C@H](CCCN)NCc2cccnc2Sc2c(Cl)cncc2CNC(=O)[C@@H]1Cc1c[nH]c2ccccc12 [Example 157, (7S,10S,13S)— 13-((1H-Indol-3-yl)methyl)-10-(4-aminobutyl)-7-(3-aminopropyl)-20-chloro-12-methyl-6,7,9,10,12,13,15,16-octahydrodipyrido[2,3-b:3′,4′-p][1,5,8,11,14]thiatetraazacycloheptadecine-8,11,14(5H)-trione]	16 (≈ 22.7 µM)
CN1C(=O)[C@H](CCCCN)NC(=O)[C@H](CCCN)NCc2cccnc2Sc2c(cc(Br)cc2C(F)(F)F)CNC(=O)[C@@H]1Cc1c[nH]c2ccccc12 [Example 88, (11S,14S,17S)-14-(4-Amino-butyl)-11-(3-amino-propyl)-23-bromo-17-(1H-indol-3-ylmethyl)-16-methyl-25-trifluoromethyl-2-thia-4,10,13,16,19-pentaaza-tricyclo[19.4.0.0*3,8*]pentacosa-1(25),3,5,7,21,23-hexaene-12,15,18-trione]	0.25 (≈ 0.306 µM)
CN1C(=O)[C@H](CCCCN)NC(=O)[C@H](CCCN)NCc2cccnc2Sc2c(Cl)ccc(Br)c2CNC(=O)[C@@H]1Cc1c[nH]c2ccccc12 [Example 90, (11S,14S,17S)-14-(4-Amino-butyl)-11-(3-amino-propyl)-22-bromo-25-chloro-17-(1H-indol-3-ylmethyl)-16-methyl-2-thia-4,10,13,16,19-pentaaza-tricyclo[19.4.0.0*3,8*]pentacosa-1(25),3,5,7,21,23-hexaene-12,15,18-trione]	0.25 (≈ 0.319 µM)
CN1C(=O)[C@H](CCCCN)NC(=O)[C@H](CCCN)NCc2ccccc2Sc2ccc(Cl)cc2CNC(=O)[C@@H]1Cc1cn(C)c2ccccc12 [Example 17, (12S,15S,18S)-15-(4-Amino-butyl)-18-(3-amino-propyl)-6-chloro-13-methyl-12-(1-methyl-1H-indol-3-ylmethyl)-2-thia-10,13,16,19-tetraaza-tricyclo[19.4.0.0*3,8*]pentacosa-1(21),3,5,7,22,24-hexaene-11,14,17-trione]	32 (≈ 44.5 µM)

Results, then the compound that gave them:

MIC [µg/mL]	SMILES
0.12 (≈ 0.151 µM)	Cc1[nH]c2ccccc2c1C[C@H]1C(=O)NCc2c(-c3cccnc3)ccc(Cl)c2Sc2ncccc2CN[C@@H](CCCN)C(=O)N[C@@H](CCCCN)C(=O)N1C [Example 200, (11S,14S,17S)-14-(4-Amino-butyl)-11-(3-amino-propyl)-25-chloro-16-methyl-17-(2-methyl-1H-indol-3-ylmethyl)-22-pyridin-3-yl-2-thia-4,10,13,16,19-pentaaza-tricyclo[19.4.0.0*3,8*]pentacosa-1(25),3(8),4,6,21,23-hexaene-12,15,18-trione]
0.25 (≈ 0.314 µM)	Cc1[nH]c2ccccc2c1C[C@H]1C(=O)NCc2cc(-c3ccncc3)cc(Cl)c2Sc2ncccc2CN[C@@H](CCCN)C(=O)N[C@@H](CCCCN)C(=O)N1C [Example 181, (11S,14S,17S)-14-(4-Amino-butyl)-11-(3-amino-propyl)-25-chloro-16-methyl-17-(2-methyl-1H-indol-3-ylmethyl)-23-pyridin-4-yl-2-thia-4,10,13,16,19-pentaaza-tricyclo[19.4.0.0*3,8*]pentacosa-1(25),3(8),4,6,21,23-hexaene-12,15,18-trione]
2 (≈ 2.51 µM)	CN1C(=O)[C@H](CCCCN)NC(=O)[C@H](CCC(N)=O)NCc2cccnc2Sc2c(Cl)cc(-c3ccccc3)cc2CNC(=O)[C@@H]1Cc1c[nH]c2ccccc12 [Example 184, 3-[(11S,14S,17S)-14-(4-Amino-butyl)-25-chloro-17-(1H-indol-3-ylmethyl)-16-methyl-12,15,18-trioxo-23-phenyl-2-thia-4,10,13,16,19-pentaaza-tricyclo[19.4.0.0*3,8*]pentacosa-1(25),3(8),4,6,21,23-hexaen-11-yl]-propionamide]
